{"source": "paper PMC6079014", "about": "“Calcium is an essential cofactor for metal efflux by the ferroportin transporter family” (Nature Communications, 2018)", "target": "T1, human Fpn (Homo sapiens, UniProt Q9NP59)", "T1 construct": "expressed in transfected cells; host or cells: Xenopus laevis oocytes injected with Fpn RNA", "T1 sequence (Q9NP59 1-571)": "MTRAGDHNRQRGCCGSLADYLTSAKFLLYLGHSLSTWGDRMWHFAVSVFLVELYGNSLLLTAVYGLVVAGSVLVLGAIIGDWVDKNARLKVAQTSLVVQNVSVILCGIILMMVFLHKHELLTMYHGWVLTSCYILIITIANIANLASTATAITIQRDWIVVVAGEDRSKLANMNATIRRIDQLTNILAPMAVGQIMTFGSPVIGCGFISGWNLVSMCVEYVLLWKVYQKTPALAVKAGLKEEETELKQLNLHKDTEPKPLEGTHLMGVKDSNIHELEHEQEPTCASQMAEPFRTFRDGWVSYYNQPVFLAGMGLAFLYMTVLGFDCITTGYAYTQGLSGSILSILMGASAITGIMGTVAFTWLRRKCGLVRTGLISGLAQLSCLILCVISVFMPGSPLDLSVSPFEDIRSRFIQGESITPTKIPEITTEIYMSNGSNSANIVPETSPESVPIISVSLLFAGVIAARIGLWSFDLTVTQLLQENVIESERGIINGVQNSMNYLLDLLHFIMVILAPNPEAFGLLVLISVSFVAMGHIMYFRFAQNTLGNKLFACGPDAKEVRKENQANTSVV", "test": "Radiotracer metal efflux assay in Xenopus oocytes expressing human Fpn", "format": "cell-based", "protocol": "We performed laparotomy and ovariectomy on adult female Xenopus laevis frogs (Nasco, Fort Atkinson, WI) under 2-aminoethylbenzoate methanesulfonate anesthesia (0.2%, by immersion, to effect) following a protocol approved by the University of Cincinnati Institutional Animal Care and Use Committee. Ovarian tissue was isolated and treated for 3 h with […] collagenase A (Roche Diagnostics Corp., Indianapolis, IN) in calcium-free-modified Barths’ medium (MBM) of composition 88 mM NaCl, 1 mM KCl, 2.4 mM NaHCO3, 1.57 mM MgSO4, 0.66 mM NaNO3, 10 mM 4-(2-hydroxyethyl)-1-piperazineethanesulfonic acid (HEPES), buffered to pH 7.5 by using 2-amino-2-hydroxymethyl-propane-1,3-diol (Tris base). We isolated defolliculate stage V–VI oocytes stored at 17 °C in MBM of composition 88 mM NaCl, 1 mM KCl, 2.4 mM NaHCO3, 0.82 MgSO4, 0.75 mM CaCl2, 0.66 mM NaNO3, 10 mM HEPES, buffered to pH 7.5 by using Tris base, with 50 mg l^−1 ciprofloxacin. We expressed in Xenopus oocytes the 1A transcript form of human Fpn fused at its C-terminus with the enhanced green fluorescent protein (GFP) as described. Oocytes were injected with ∼50 ng of Fpn RNA and incubated for 4–6 days before being used in functional assays. Control oocytes were noninjected.\nWe measured metal efflux from oocytes expressing Fpn by using a radiotracer assay. Radiochemicals ^55Fe, ^45Ca, ^57Co, ^65Zn were obtained from Perkin-Elmer Life Science Products (Boston, MA) and ^63Ni from the National Isotope Development Center (Oak Ridge, TN). We used ^55Fe (added as FeCl3) at final specific activity 0.4–2.0 GBq mg^−1, ^45Ca (added as CaCl2) at final specific activity 0.5–0.9 GBq mg^−1, ^57Co (added as CoCl2) at final specific activity 1.6 GBq mg^−1, ^65Zn (added as ZnCl2) at final specific activity 0.2 GBq mg^−1, and ^63Ni (added as NiCl2) at final specific activity 0.6 GBq mg^−1. Oocytes were injected with 50 nl of 5 μM metal radionuclide (*M) in vehicle of composition 250 mM KCl, 5 mM nitrilotriacetic acid, trisodium salt, buffered to pH 7.0 with ∼4 mM 2-(N-morpholino)ethanesulfonic acid (MES) (GFS Chemicals, Columbus, OH). After injection, oocytes were briefly stored in ice-cold MBM (for 1–5 min) prior to the start of the efflux assay.\nTo initiate the efflux assay, we placed oocytes in standard efflux medium of composition 100 mM NaCl, 1 mM KCl, 2 mM CaCl2, 1 mM MgCl2, 0.5 mM bathophenanthroline disulfonic acid (BPS), 1 mM nitrilotriacetic acid (NTA) trisodium salt, 50 μg/ml apotransferrin (ApoTf) (R&D Systems Inc., Minneapolis, MN), buffered with 0–5 mM MES, and 0–5 mM N′,N′-diethylpiperazine to obtain pH 7.5, with the following exceptions. To prepare Ca^2+-free medium, we replaced 2 mM CaCl2 with 4 mM NaCl and added 1 mM ethylene glycol-bis(2-aminoethyl ether)-N,N,N′,N′-tetraacetic acid (EGTA). To prepare Mg^2+-free medium, we replaced […] MgCl2 with 4 mM NaCl and added 1 mM ethylenediaminetetraacetic acid (EDTA). To measure ^55Fe efflux as a function of extracellular [Ca^2+] over the range 0.1–20 mM Ca^2+ (Figs. 1c, 6b), we adjusted [NaCl] and [CaCl2] on a 2:1 molar basis without the addition of EGTA. Oocytes were then transferred individually in 200 µl of medium to flat-bottomed wells of a 96-well plate and incubated 30 min—within the linear phase of metal efflux[10] —at 23–27 °C with gentle rocking. To terminate efflux, we removed 150 µl of medium (0.75 × [N0–Nt]) from each well for liquid-scintillation counting in Ultima Gold liquid-scintillation cocktail (Perkin-Elmer, Waltham, MA). The corresponding oocytes were rinsed twice in ice-cold medium (without BPS), solubilized with 5% (w/v) sodium dodecyl sulfate, and counted (Nt). We fit our data for oocyte radiotracer content (N) over time (Eq. (1)) and obtained the first-order rate constant (k) for metal radionuclide (*M) efflux for individual oocytes. N0 and Nt are counts per min (cpm) in the oocyte at time = 0 and time = t, respectively.1 Nt=N0⋅exp(-k⋅t) […]", "key": {"[1]": {"conditions": "2 mM extracellular Ca2+ vs 0 mM Ca2+ plus 1 mM EGTA"}}, "note": "“And” between values parts separate entries of the source, which are not always exact repeats. Equal values may be shown once.", "data": [{"smiles": "[Ca+2]", "note": "[Ca^2+, calcium]", "values": [{"measurement": "EC50", "value": "900 µM and 800 to 900 µM and 800 µM"}, {"measurement": "Dependence of Fpn-mediated 55Fe efflux on extracellular Ca2+", "setting": "[1]", "value": "dependent"}, {"measurement": "Effect of extracellular Ca2+ on Fpn-mediated 57Co efflux", "setting": "[1]", "value": "activated"}, {"measurement": "Effect of extracellular Ca2+ on Fpn-mediated 63Ni efflux", "setting": "[1]", "value": "activated"}, {"measurement": "45Ca efflux from oocytes expressing Fpn vs control", "setting": "oocytes injected with 45Ca", "value": "did not stimulate"}]}]}
